Data from patent US6929810B2, “Preparation of essential oil compositions for portable liquid disinfection” (Council of Scientific and Industrial Research, priority 2001, dated 2005).

System: E. coli
Test: bore-well method (zone of inhibition)
Assay type: cell-based
Details: standard antibiotics available in the market

Q: Which “Zone of Inhibition, Antibiotic” value does the source give for `CC1(C)S[C@@H]2[C@H](NC(=O)[C@H](N)c3ccccc3)C(=O)N2[C@H]1C(=O)O` [Ampicillin] here?
A: 14 mm

Q: With `O=C(N[C@H](CO)[C@H](O)c1ccc([N+](=O)[O-])cc1)C(Cl)Cl` [Chloromphenilcol] as the molecule, how does the “Zone of Inhibition, Antibiotic” value read?
A: 35 mm

Q: Which “Zone of Inhibition, Antibiotic” value does the source give for `CC[C@H]1OC(=O)[C@H](C)[C@@H](O[C@H]2C[C@@](C)(OC)[C@@H](O)[C@H](C)O2)[C@H](C)[C@@H](O[C@@H]2O[C@H](C)C[C@H](N(C)C)[C@H]2O)[C@](C)(O)C[C@@H](C)C(=O)[C@H](C)[C@@H](O)[C@]1(C)O` [Erythromycin] here?
A: 10 mm

Q: `NC[C@H]1O[C@H](O[C@H]2[C@H](O)[C@@H](O[C@H]3O[C@H](CO)[C@@H](O)[C@H](N)[C@H]3O)[C@H](N)C[C@@H]2N)[C@H](O)[C@@H](O)[C@@H]1O` [Kanamycin] was tested. Which “Zone of Inhibition, Antibiotic” value did it give?
A: 30 mm

Q: Which “Zone of Inhibition, Antibiotic” value does the source give for `CN(C)[C@@H]1C(O)=C(C(N)=O)C(=O)[C@@]2(O)C(O)=C3C(=O)c4c(O)cccc4[C@@](C)(O)[C@H]3C[C@@H]12` [Tetracycline] here?
A: 24 mm

Q: Which “Zone of Inhibition, Antibiotic” value does the source give for Gentamycin here?
A: 24 mm
